Experimental data taken from patent US20170050894A1, “FERTILIZER MIXTURE CONTAINING NITRIFICATION INHIBITOR” (EUROCHEM AGRO GMBH, priority 2013, published 2017).

Experiment: Storage stability in an accelerated test (open glass beaker, 40 days at 30° C.)
Assay type: physicochemical
Settings: for Analytical value (concentration of nitrification inhibitor on the mineral fertilizer): Value at start
Experimental: The concentration of nitrification inhibitor on the mineral fertilizer was determined before, during and after storage at two different depths in the bed, and the loss of nitrification inhibitor was ascertained. In each case about 10 to 30 g of treated mineral fertilizer were stored. The concentration of DMPP at the start was 1.028 g/kg fertilizer; for 2-(N-3,4-dimethylpyrazole)succinic acid, the figure was 1.244 g/kg fertilizer.
After 20 and 40 days, samples were taken from a surface region of the fertilizer bed (0 to 5 cm sampling depth and >5 cm sampling depth).
The results are shown in table 1 below, where DMPSA denotes 2-(N-3,4-dimethylpyrazole)succinic acid.

Row | Analytical value (concentration of nitrification inhibitor on the mineral fertilizer) [g/kg] | loss of nitrification inhibitor on storage, compared with DMPP (storage over 20 to 40 days on CAN) | SMILES
1 | 1.028 |  | Cc1c[nH]nc1C.O=P(O)(O)O [DMPP, 3,4-dimethylpyrazole phosphate, reference compound]
2 | 1.244 | much lower | Cc1cn(C(CC(=O)O)C(=O)O)nc1C (stereo not drawn) [DMPSA, 2-(N-3,4-dimethylpyrazole)succinic acid]
